Patent US20100221350A1, “DERMATOLOGICAL COMPOSITIONS COMPRISING VITAMIN D LIPID VESICLES” (GALDERMA S.A., priority 2007, published 2010)

Experiment: Preformulation stability and solubility tests of calcitriol in two excipients
Format: physicochemical
Details: 800 ppm; 4° C., ambient temperature and 40° C.; 1 month
Experimental: Preliminary preformulation studies were carried out to direct the choice of the lipid core (oily internal phase) of the lipid vesicles. The results of tests of stability and of solubility of calcitriol in two excipients are presented in the graphs below. The objective of these solubility and stability studies on calcitriol is to find the oil which will make possible good solubility of calcitriol for the proposals for internal phase used in this concept and good stability of calcitriol in this excipient. Calcitriol is stable at 800 ppm in Miglyol 812 (caprylic/capric triglyceride: MTC) and tocopherol acetate at the three temperatures (4° C., ambient temperature and 40° C.) for 1 month.

C=C1/C(=C\C=C2/CCC[C@]3(C)[C@@H]([C@H](C)CCCC(C)(C)O)CC[C@@H]23)C[C@@H](O)C[C@@H]1O [Calcitriol, calcitriol]
Stability of calcitriol in Miglyol 812 (caprylic/capric triglyceride): stable
Stability of calcitriol in tocopherol acetate: stable
